Laboratory results: US7612087B2, “Heterocyclic compounds as inhibitors of beta-lactamases” (Novexel, priority 2002, dated 2009)

Assays:
E. coli 250CF1 (Tem3) = assay: microbe, parasite or virus in culture; format: cell-based; details: compound at 5 mg/l, 24 hours at 37° C.; for MIC of Cefotaxime in combination with the compound: Trial 4, 250CF1 E. coli Tem3; for MIC of Piperacillin in combination with the compound: Trial 4, 250CF1 Tem3
Method in brief: (§1)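 Strains were seeded into liquid-medium dilutions of β-lactamine, each supplemented with a fixed 5 mg/l of test compound, and held 24 hours at 37° C in a heating chamber. Minimal inhibitory concentration was the level at which bacterial development was wholly absent.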

β-lactamase P99 = target: T1, β-lactamase P99 (Enterobacter cloacae, UniProt P05364); assay: biochemical; details: 100 μM Nitrocefin, 50 mM sodium phosphate buffer pH7.0, 37° C.; read-out: IC50 nM/P99
T1 construct: The β-lactamases are isolated from bacterial strains which are resistant to penicillins and cephalosporins; endogenous in cells; host or cells: Enterobacter cloacae 293HT6 (natural producer; French-press lysate, 100,000 g supernatant)
T1 sequence (P05364 21-381): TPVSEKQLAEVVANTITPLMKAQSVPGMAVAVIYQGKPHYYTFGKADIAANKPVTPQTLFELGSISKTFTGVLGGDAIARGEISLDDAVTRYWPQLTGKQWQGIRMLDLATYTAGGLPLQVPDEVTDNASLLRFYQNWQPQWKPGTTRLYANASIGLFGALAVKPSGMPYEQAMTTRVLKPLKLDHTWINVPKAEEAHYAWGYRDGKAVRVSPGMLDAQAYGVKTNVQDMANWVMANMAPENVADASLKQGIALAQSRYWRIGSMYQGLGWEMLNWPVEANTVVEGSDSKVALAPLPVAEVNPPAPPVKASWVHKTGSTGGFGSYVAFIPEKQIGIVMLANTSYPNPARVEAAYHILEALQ
Method in brief: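 P99 β-lactamase, taken from the soluble fraction of an Enterobacter cloacae 293HT6 lysate, was assayed at 37° C. in 50 mM sodium phosphate buffer pH7.0 with 100 μM Nitrocefin as the chromogenic substrate. Hydrolysis was followed kinetically at 485 nm at initial speed, with and without a 5 mn enzyme–inhibitor preincubation. Inhibitors were tested at 6 or 8 concentrations in duplicate, and IC50 was fitted with GraFit.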

E. coli 250HT22 (Tem2) = assay: MIC, micro-dilution in liquid medium, β-lactamine with product at 5 mg/l; format: cell-based; details: compound at 5 mg/l, 24 hours at 37° C.; for MIC of Cefotaxime in combination with the compound: Trial 3, 250HT22 E. coli Tem2; for MIC of Piperacillin in combination with the compound: Trial 3, 250HT22 Tem2
Method in brief: as §1

E. coli 250HT26 (SHV1) = assay: as above; format: cell-based; details: compound at 5 mg/l, 24 hours at 37° C.; for MIC of Cefotaxime in combination with the compound: Trial 6, 250HT26 E. coli SHV1; for MIC of Piperacillin in combination with the compound: Trial 6, 250HT26 SHV1
Method in brief: as §1

[1] = test system: S. aureus 011GO66 (PeniR); assay: as above; format: cell-based; details: compound at 5 mg/l, 24 hours at 37° C.; for MIC of Cefotaxime in combination with the compound: Trial 1, 011GO66 S. aureus PeniR; for MIC of Piperacillin in combination with the compound: Trial 1, 011GO66 peniR
Method in brief: as §1

Serratia 301HT6 = assay: as above; format: cell-based; details: compound at 5 mg/l; Trial 10, 301HT6 Serratia; 24 hours at 37° C.
Method in brief: as §1

[2] = test system: P. aeruginosa 391HT7 (PSE); assay: as above; format: cell-based; details: compound at 5 mg/l, 24 hours at 37° C.; for MIC of Cefotaxime in combination with the compound: Trial 11, 391HT7 P. aeruginosa PSE; for MIC of Piperacillin in combination with the compound: Trial 11, 391HT7 PSE
Method in brief: as §1

E. coli 250BE1 (SHV4) = assay: as above; format: cell-based; details: compound at 5 mg/l, 24 hours at 37° C.; for MIC of Cefotaxime in combination with the compound: Trial 7, 250BE1 E. coli SHV4; for MIC of Piperacillin in combination with the compound: Trial 7, 250BE1 SHV4
Method in brief: as §1

E. coli 250SJ1 (Tem7) = assay: as above; format: cell-based; details: compound at 5 mg/l, 24 hours at 37° C.; for MIC of Cefotaxime in combination with the compound: Trial 5, 250SJ1 E. coli Tem7; for MIC of Piperacillin in combination with the compound: Trial 5, 250SJ1 Tem7
Method in brief: as §1

[3] = test system: E. cloacae 293HT6 (Class C); assay: as above; format: cell-based; details: compound at 5 mg/l, 24 hours at 37° C.; for MIC of Piperacillin in combination with the compound: Trial 9, 293HT6 Class; for MIC of Cefotaxime in combination with the compound: Trial 9, 293HT6 E. cloacae Class C
Method in brief: as §1

E. coli 250HT21 (Tem1) = assay: as above; format: cell-based; details: compound at 5 mg/l, 24 hours at 37° C.; for MIC of Cefotaxime in combination with the compound: Trial 2, 250HT21 E. coli Tem1; for MIC of Piperacillin in combination with the compound: Trial 2, 250HT21 Tem1
Method in brief: as §1

[4] = test system: P. aeruginosa 391HT8 (PSE); assay: as above; format: cell-based; details: compound at 5 mg/l, 24 hours at 37° C.; for MIC of Cefotaxime in combination with the compound: Trial 12, 391HT8 P. aeruginosa PSE; for MIC of Piperacillin in combination with the compound: Trial 12, 391HT8 PSE
Method in brief: as §1

[5] = test system: E. coli 250HT23 (Class D); assay: as above; format: cell-based; details: compound at 5 mg/l, 24 hours at 37° C.; for MIC of Piperacillin in combination with the compound: Trial 8, 250HT23 Class D; for MIC of Cefotaxime in combination with the compound: Trial 8, 250HT23 E. coli Class D
Method in brief: as §1

β-lactamase TEM1 = target: T2, β-lactamase TEM1 (Escherichia coli, UniProt P62593); assay: Inhibition of isolated β-lactamase Tem-1 (Nitrocefin hydrolysis); format: biochemical, E.coli 250HT21; details: 100 μM Nitrocefin, 50 mM sodium phosphate buffer pH7.0, 37° C.
T2 construct: The β-lactamases are isolated from bacterial strains which are resistant to penicillins and cephalosporins; endogenous in cells; host or cells: E. coli 250HT21 (natural producer; French-press lysate, 100,000 g supernatant)
T2 sequence (P62593 24-286 limits assumed): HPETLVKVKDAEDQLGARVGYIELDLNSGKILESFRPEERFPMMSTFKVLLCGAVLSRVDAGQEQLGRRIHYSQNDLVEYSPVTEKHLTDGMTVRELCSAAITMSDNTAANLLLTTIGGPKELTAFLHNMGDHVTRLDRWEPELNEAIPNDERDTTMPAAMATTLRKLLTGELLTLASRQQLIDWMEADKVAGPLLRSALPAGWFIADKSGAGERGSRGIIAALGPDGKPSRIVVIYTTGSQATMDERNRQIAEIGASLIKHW
Method in brief: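 TEM-1 from soluble extract of E. coli 250HT21, normalized enzyme, 100 μM Nitrocefin in 50 mM sodium phosphate pH 7.0 at 37 °C. Initial-rate hydrolysis read kinetically at 485 nm, with and without 5 min enzyme–inhibitor preincubation. CI50 from 6 or 8 concentrations in duplicate.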

SMILES	MIC of Cefotaxime in combination with the compound (E. coli 250CF1 (Tem3))	MIC of Piperacillin in combination with the compound (E. coli 250CF1 (Tem3))	IC50 (β-lactamase P99)	MIC of Cefotaxime in combination with the compound (E. coli 250HT22 (Tem2))	MIC of Piperacillin in combination with the compound (E. coli 250HT22 (Tem2))	MIC of Cefotaxime in combination with the compound (E. coli 250HT26 (SHV1))	MIC of Piperacillin in combination with the compound (E. coli 250HT26 (SHV1))	MIC of Cefotaxime in combination with the compound [1]	MIC of Piperacillin in combination with the compound [1]	MIC of Cefotaxime in combination with the compound (Serratia 301HT6)	MIC of Piperacillin in combination with the compound (Serratia 301HT6)	MIC of Cefotaxime in combination with the compound [2]	MIC of Piperacillin in combination with the compound [2]	MIC of Cefotaxime in combination with the compound (E. coli 250BE1 (SHV4))	MIC of Piperacillin in combination with the compound (E. coli 250BE1 (SHV4))	MIC of Cefotaxime in combination with the compound (E. coli 250SJ1 (Tem7))	MIC of Piperacillin in combination with the compound (E. coli 250SJ1 (Tem7))	MIC of Piperacillin in combination with the compound [3]	MIC of Cefotaxime in combination with the compound [3]	MIC of Cefotaxime in combination with the compound (E. coli 250HT21 (Tem1))	further results
NC(=O)c1cccc(NC(=O)[C@H]2CC[C@@H]3CN2C(=O)N3OS(=O)(=O)[O-])c1.[Na+] (relative stereo) [Example 39, sodium salt of trans-N-[3-(aminocarbonyl)phenyl]-7-oxo-6-(sulphooxy)-1,6-diazabicyclo[3.2.1]octane-2-carboxamide]	0.08 µg/mL	40 µg/mL	50 nM	<=0.04 μg/ml	20 µg/mL	<=0.04 μg/ml	40 µg/mL	2.5 µg/mL	1.2 µg/mL	<=0.04 μg/ml	0.6 µg/mL	20 µg/mL	>40 µg/mL	0.08 µg/mL	20 µg/mL	<=0.04 μg/ml	>40 µg/mL	20 µg/mL	1.2 µg/mL	<=0.04 μg/ml	MIC of Piperacillin in combination with the compound (E. coli 250HT21 (Tem1)): 2.5 µg/mL; MIC of Cefotaxime in combination with the compound [4]: 20 µg/mL; MIC of Piperacillin in combination with the compound [4]: >40 µg/mL; MIC of Piperacillin in combination with the compound [5]: 10 µg/mL; MIC of Cefotaxime in combination with the compound [5]: <=0.04 μg/ml; IC50 (β-lactamase TEM1): 31 nM
CN(C)c1ccc(NC(=O)[C@H]2CC[C@@H]3CN2C(=O)N3OS(=O)(=O)[O-])cc1.[Na+] (relative stereo) [Example 40, sodium salt of trans-N-[4-(dimethylamino)phenyl]-7-oxo-6-(sulphooxy)-1,6-diazabicyclo[3.2.1]octane-2-carboxamide]	0.6 µg/mL	>40 µg/mL	96 nM	<=0.04 μg/ml	>40 µg/mL	<=0.04 μg/ml	>40 µg/mL	2.5 µg/mL	0.6 µg/mL	0.08 µg/mL	1.2 µg/mL	>40 µg/mL	>40 µg/mL	1.2 µg/mL	>40 µg/mL	0.15 µg/mL	>40 µg/mL	>40 µg/mL	>40 µg/mL	<=0.04 μg/ml	MIC of Piperacillin in combination with the compound (E. coli 250HT21 (Tem1)): 10 µg/mL; MIC of Cefotaxime in combination with the compound [4]: >40 µg/mL; MIC of Piperacillin in combination with the compound [4]: >40 µg/mL; MIC of Piperacillin in combination with the compound [5]: 20 µg/mL; MIC of Cefotaxime in combination with the compound [5]: <=0.04 μg/ml; IC50 (β-lactamase TEM1): 51 nM
CN(C)c1cccc(NC(=O)[C@H]2CC[C@@H]3CN2C(=O)N3OS(=O)(=O)[O-])c1.[Na+] (relative stereo) [Example 41, sodium salt of trans-N-[3-(dimethylamino)phenyl]-7-oxo-6-(sulphooxy)-1,6-diazabicyclo[3.2.1]octane-2-carboxamide]	2.5 µg/mL	>40 µg/mL	120 nM	<=0.04 μg/ml	>40 µg/mL	<=0.04 μg/ml	>40 µg/mL	2.5 µg/mL	1.2 µg/mL	0.08 µg/mL	1.2 µg/mL	>40 µg/mL	>40 µg/mL	>40 µg/mL	>40 µg/mL	0.6 µg/mL	>40 µg/mL	>40 µg/mL	>40 µg/mL	<=0.04 μg/ml	MIC of Piperacillin in combination with the compound (E. coli 250HT21 (Tem1)): 40 µg/mL; MIC of Cefotaxime in combination with the compound [4]: >40 µg/mL; MIC of Piperacillin in combination with the compound [4]: >40 µg/mL; MIC of Piperacillin in combination with the compound [5]: 40 µg/mL; MIC of Cefotaxime in combination with the compound [5]: 0.08 µg/mL; IC50 (β-lactamase TEM1): 14 nM
